“Also recorded” adds a separate entry of the source.
Assays:
IL-1ra [1] = experiment: Immunohistochemistry of IL-1ra expression in explants of healthy human skin; format: cell-based; settings: for intensity of expression of IL-1ra / intensity of expression of IL-1ra in the epidermis: 24 hours; for intensity of expression of IL-1ra: scale 0-3; for intensity of expression of IL-1ra in the epidermis: healthy donors (n=8), scale 0=none to 3=strong, mean (+/−)
Method: (§1) Fragments of healthy skin from 8 healthy donors were obtained from mammary plasties (plastic surgery) or from a foreskin (infant surgery).
(§2) The fragments of healthy skin and of acneic skin were incubated at 37° C. in a humid atmosphere and in the presence of 5% CO2 for 24 hours in KGM culture medium without hydrocortisone (PromoCell, Heidelberg, Germany). The culture medium was supplemented with 2 different concentrations of adapalene (Galderma, Sophia Antipolis): 10^−7 M and 10^−6 M. The culture medium alone served as control medium.
(§3) After incubation, the explants were removed from the culture medium and were then frozen in liquid nitrogen for the immunohistochemical study. The culture supernatants were frozen at −80° C. to evaluate the protein secretion using an ELISA assay technique.
(§4) The expression of IL-1ra was evaluated by an immunoperoxidase technique in the explants of healthy skin from 8 healthy donors and of the acneic skin from 8 patients.
For this, cryostat sections 5 μm thick were cut from the skin explants, and were then fixed in acetone at 4° C. for 10 minutes. After saturation of the nonspecific sites with bovine albumin (BSA) for 30 minutes at ambient temperature, the slides were incubated for 30 minutes at ambient temperature and in a humid atmosphere in the presence of the corresponding primary antibody [anti-IL-1ra monoclonal antibody at 10 μg/ml (R&D Systems)] or of an irrelevant isotype antibody for the negative control (normal goat IgG at (R&D Systems), IgG2a monoclonal antibody (DAKO, Trappes, France), IgG1 monoclonal antibody (DAKO)).
After washing for 15 minutes in TBS/0.1% BSA/0.05% Tween 20, the slides were incubated with a biotinylated secondary antibody (DAKO) for 30 minutes at ambient temperature and in a humid atmosphere. After a further washing step, the slides were incubated for 30 minutes in the presence of streptavidin/peroxidise (DAKO) for 30 minutes at ambient temperature and in a humid atmosphere. After a final wash, the slides were incubated for 5 minutes in the presence of AEC (DAKO), a substrate for peroxidise, and then counterstained with Mayer's hemalun. The slides were read under a microscope.
(§5) The slides were read under a Leitz microscope by 2 investigators.
A semi-quantitative scale was used to define the intensity of the labeling: 0=none, 1=weak, 2=medium, 3=strong.
(§6) A mean was established on 8 healthy donors or 8 acneic patients in each of the “control”, “10^−7 M adapalene” and “10^−6 M adapalene” groups.
(§7) The paired Wilcoxon test was employed for the statistical analysis, and p<0.05 (by comparison with the control medium) was considered to be significant.

IL-1ra [2] = experiment: Immunohistochemistry of IL-1ra expression in explants of acneic skin; format: cell-based, human; settings: for intensity of expression of IL-1ra in the epidermis: acneic patients (n=8), 24 hours, scale 0-3
Method: (§8) A skin biopsy (1×1.5 cm) was obtained from inflammatory papulae of lesions on the back of 8 acneic patients (having received no local treatment for 2 weeks or no general treatment for 1 month, or 3 months with isotretinoin). The fragments sampled were immediately placed in culture.
as §2, §3, §4
For this, cryostat sections 5 μm thick were cut from the skin explants, and were then fixed in acetone at 4° C. for 10 minutes. […]
After washing for 15 minutes in TBS/0.1% BSA/0.05% Tween 20, the slides were incubated with a biotinylated secondary antibody (DAKO) for 30 minutes at ambient temperature and in a humid atmosphere. […] The slides were read under a microscope.
as §5
A semi-quantitative scale was used to define the intensity of the labeling: 0=none, 1=weak, 2=medium, 3=strong. […]

IL-1ra [3] = experiment: ELISA assay of IL-1ra secreted in culture supernatants of explants of healthy skin; format: cell-based, human; settings: for amount of IL-1ra secreted in the culture supernatants: healthy skin explants (n=8), 24 hours
Method: as §1, §2, §3
(§9) The IL-1ra protein secretion […] in the culture supernatants of the explants of acneic skin and of healthy skin, incubated in the presence or absence of adapalene, was evaluated by means of an ELISA assay using the IL-1ra Cytoscreen detection kit (Biosource Europe S.A., Nivelles, Belgium) and according to the supplier's instructions.
as §6, §7

IL-1ra [4] = experiment: ELISA assay of IL-1ra secreted in culture supernatants of explants of acneic skin; format: cell-based, human; settings: for secreted amount of IL-1ra: acneic skin explants (n=8), 24 hours; for increase of secreted IL-1ra compared with the control medium: acneic skin explants
Method: as §8, §2, §3, §9, §6, §7

RARγ = molecular target: T1, RARγ (Homo sapiens, UniProt P13631); settings: cited from earlier work
T1 sequence (P13631 1-454): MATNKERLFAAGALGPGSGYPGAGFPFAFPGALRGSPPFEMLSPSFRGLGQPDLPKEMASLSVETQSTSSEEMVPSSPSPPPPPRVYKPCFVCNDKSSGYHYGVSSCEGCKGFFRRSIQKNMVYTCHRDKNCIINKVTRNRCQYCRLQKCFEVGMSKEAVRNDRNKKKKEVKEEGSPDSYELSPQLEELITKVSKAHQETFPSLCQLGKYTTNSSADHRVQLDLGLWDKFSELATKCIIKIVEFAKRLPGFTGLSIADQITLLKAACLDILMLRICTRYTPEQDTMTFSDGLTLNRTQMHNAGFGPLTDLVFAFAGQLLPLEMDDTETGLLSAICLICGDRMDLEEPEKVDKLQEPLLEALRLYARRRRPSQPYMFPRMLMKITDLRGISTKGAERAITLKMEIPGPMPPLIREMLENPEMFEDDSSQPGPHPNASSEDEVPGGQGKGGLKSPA

RARβ = molecular target: T2, RARβ (Homo sapiens, UniProt P10826); settings: cited from earlier work
T2 sequence (P10826 1-455): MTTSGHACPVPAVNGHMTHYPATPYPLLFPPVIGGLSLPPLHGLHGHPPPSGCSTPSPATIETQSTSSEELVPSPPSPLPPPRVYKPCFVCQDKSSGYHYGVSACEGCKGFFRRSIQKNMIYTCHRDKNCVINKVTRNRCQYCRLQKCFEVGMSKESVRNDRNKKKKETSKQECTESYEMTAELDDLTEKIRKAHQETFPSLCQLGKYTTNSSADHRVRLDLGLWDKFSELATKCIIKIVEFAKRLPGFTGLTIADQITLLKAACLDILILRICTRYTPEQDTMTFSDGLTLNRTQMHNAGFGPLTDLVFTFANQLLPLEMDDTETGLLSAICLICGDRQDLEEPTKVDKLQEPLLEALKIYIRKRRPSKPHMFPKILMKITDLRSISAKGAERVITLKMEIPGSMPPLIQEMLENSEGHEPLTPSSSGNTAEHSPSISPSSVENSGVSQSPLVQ

[5] = tested on: cellular retinoic acid binding proteins; settings: cited from earlier work
lipoxygenase pathway = settings: cited from earlier work
[6] = tested on: polymorphonuclear neutrophils; settings: cited from earlier work
free radicals = settings: cited from earlier work
[7] = tested on: superficial inflammatory lesions; settings: clinically; cited from earlier work

COc1ccc(-c2ccc3cc(C(=O)O)ccc3c2)cc1C12CC3CC(CC(C3)C1)C2 [adapalene, 6-[3-(1-adamantyl)-4-methoxyphenyl]-2-naphthoic acid]
intensity of expression of IL-1ra (IL-1ra [1]; 1st subgroup of healthy donors (n=4, weak control expression), 10^−6 M adapalene): 1.2 (+/−0.4)
intensity of expression of IL-1ra (IL-1ra [1]; 1st subgroup of healthy donors (n=4, weak control expression), 10^−7 M adapalene): 1.1 (+/−0.4)
modulatory effect on the expression of IL-1ra (in words) (IL-1ra [1]; 1st subgroup of healthy donors, expression in the control medium weak): an inducing effect
intensity of expression of IL-1ra (IL-1ra [1]; 2nd subgroup of healthy donors (n=4, greater control expression), 10^−6 M adapalene): 0.5 (+/−0.0)
intensity of expression of IL-1ra (IL-1ra [1]; 2nd subgroup of healthy donors (n=4, greater control expression), 10^−7 M adapalene): 0.5 (+/−0.0)
modulatory effect on the expression of IL-1ra (in words) (IL-1ra [1]; 2nd subgroup of healthy donors, expression in the control medium greater): an inhibitory effect
intensity of expression of IL-1ra in the epidermis (IL-1ra [1]; 10^−6 M adapalene): 0.8 (+/−0.4)
intensity of expression of IL-1ra in the epidermis (IL-1ra [1]; 10^−7 M adapalene): 0.9 (+/−0.5)
modulatory effect on the expression of IL-1ra in the epidermis (in words) (IL-1ra [1]; mean of 8 healthy donors, 10^−7 M and 10^−6 M): No significant modulation; also recorded: does not demonstrate a modulatory effect
intensity of expression of IL-1ra in the epidermis (IL-1ra [2]; 10^−6 M adapalene): 0.9 (+/−0.7)
intensity of expression of IL-1ra in the epidermis (IL-1ra [2]; 10^−7 M adapalene): 0.8 (+/−0.8)
effect on the expression of IL-1ra in the epidermis (in words) (IL-1ra [2]; acneic patients, 10^−7 M and 10^−6 M): increases the expression
amount of IL-1ra secreted in the culture supernatants (IL-1ra [3]; 10^−6 M adapalene): 564 pg
amount of IL-1ra secreted in the culture supernatants (IL-1ra [3]; 10^−7 M adapalene): 600 pg
decrease of secreted IL-1ra compared with the control medium (IL-1ra [3]; healthy skin explants, 10^−6 M adapalene): 3.5%
increase of secreted IL-1ra compared with the control medium (IL-1ra [3]; healthy skin explants, 10^−7 M adapalene): 2.6%
secreted amount of IL-1ra (IL-1ra [4]; 10^−6 M adapalene): 1161 pg
secreted amount of IL-1ra (IL-1ra [4]; 10^−7 M adapalene): 1196 pg
increase of secreted IL-1ra compared with the control medium (IL-1ra [4]; 10^−6 M adapalene): 1.4%
increase of secreted IL-1ra compared with the control medium (IL-1ra [4]; 10^−7 M adapalene): 4.4%
binding to RARγ (in words) (RARγ): binds selectively
binding to RARβ (in words) (RARβ): binds selectively
binding to cellular retinoic acid binding proteins (in words) [5]: does not, on the other hand, bind
oxidative metabolism of arachidonic acid via the lipoxygenase pathway (in words) (lipoxygenase pathway): inhibits
production of leukotrienes via the lipoxygenase pathway (in words) (lipoxygenase pathway): inhibits
chemotaxis of polymorphonuclear neutrophils (in words) [6]: inhibits
production of free radicals (in words) (free radicals): inhibits
clinical activity on superficial inflammatory lesions (in words) [7]: exhibits an activity

— US20100130614A1, “ADMINISTRATION OF ADAPALENE FOR MODULATING THE EXPRESSION OF IL-1ra” (GALDERMA RESEARCH & DEVELOPMENT, priority 2007, published 2010)
